Measurements published in PubChem BioAssay (NCI).
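GI50 = concentration required for 50% inhibition of growth. TGI denotes the concentration required for complete inhibition of growth.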

Tests used:
Experiment in all cases: growth of human tumour cells (NCI), 384-well format
HL-60(TB) leukemia = tested on: HL-60(TB) leukemia
ACHN renal = tested on: ACHN renal
NCI-H226 lung = tested on: NCI-H226 lung
SF-295 CNS = tested on: SF-295 CNS
NCI-H522 lung = tested on: NCI-H522 lung
SF-539 CNS = tested on: SF-539 CNS
OVCAR-8 ovarian = tested on: OVCAR-8 ovarian
A498 renal = tested on: A498 renal
SK-MEL-28 melanoma = tested on: SK-MEL-28 melanoma
MDA-MB-435 melanoma = tested on: MDA-MB-435 melanoma
M14 melanoma = tested on: M14 melanoma
T-47D breast = tested on: T-47D breast
NCI/ADR-RES ovarian = tested on: NCI/ADR-RES ovarian
HS 578T breast = tested on: HS 578T breast
PC-3 prostate = tested on: PC-3 prostate
EKVX NSCLC = tested on: EKVX NSCLC
HOP-62 NSCLC = tested on: HOP-62 NSCLC
MOLT-4 leukemia = tested on: MOLT-4 leukemia
SK-OV-3 ovarian = tested on: SK-OV-3 ovarian
OVCAR-5 ovarian = tested on: OVCAR-5 ovarian
HCC-2998 colon = tested on: HCC-2998 colon
SR leukemia = tested on: SR leukemia
SNB-75 CNS = tested on: SNB-75 CNS
RPMI-8226 leukemia = tested on: RPMI-8226 leukemia
DU-145 prostate = tested on: DU-145 prostate
NCI-H322M lung = tested on: NCI-H322M lung
SN12C renal = tested on: SN12C renal
OVCAR-3 ovarian = tested on: OVCAR-3 ovarian
MCF7 breast = tested on: MCF7 breast
HCT-116 colon = tested on: HCT-116 colon
MDA-MB-468 breast = tested on: MDA-MB-468 breast
MALME-3M melanoma = tested on: MALME-3M melanoma
CAKI-1 renal = tested on: CAKI-1 renal
LOX IMVI melanoma = tested on: LOX IMVI melanoma
SNB-19 CNS = tested on: SNB-19 CNS
UACC-62 melanoma = tested on: UACC-62 melanoma
IGROV1 ovarian = tested on: IGROV1 ovarian
RXF 393 renal = tested on: RXF 393 renal
KM12 colon = tested on: KM12 colon
A549 NSCLC = tested on: A549 NSCLC
TK-10 renal = tested on: TK-10 renal
U251 glioblastoma = tested on: U251 glioblastoma
SF-268 CNS = tested on: SF-268 CNS
HT29 colon = tested on: HT29 colon
NCI-H460 NSCLC = tested on: NCI-H460 NSCLC
BT-549 breast = tested on: BT-549 breast
UACC-257 melanoma = tested on: UACC-257 melanoma
HCT-15 colon = tested on: HCT-15 colon
MDA-MB-231 breast = tested on: MDA-MB-231 breast
OVCAR-4 ovarian = tested on: OVCAR-4 ovarian
SK-MEL-5 melanoma = tested on: SK-MEL-5 melanoma
COLO 205 colon = tested on: COLO 205 colon
NCI-H23 lung = tested on: NCI-H23 lung
HOP-92 NSCLC = tested on: HOP-92 NSCLC

Work on CC(C)C[C@H](NC(=O)[C@@H](NC(=O)c1cccc(-c2ccccc2)n1)[C@@H](C)O)B(O)O yielded a GI50 (HL-60(TB) leukemia) of 77.6 nM, a TGI (HL-60(TB) leukemia) of 198 nM and a GI50 (ACHN renal) of 239 nM. For the same compound, the TGI (ACHN renal) was 957 nM, the GI50 (NCI-H226 lung) was 11.4 nM and the TGI (NCI-H226 lung) was 103 nM. The GI50 (SF-295 CNS) was 374 nM, the TGI (SF-295 CNS) was 1540 nM and the GI50 (NCI-H522 lung) was 122 nM. For the same compound, the TGI (NCI-H522 lung) was 249 nM, the GI50 (SF-539 CNS) was 165 nM and the TGI (SF-539 CNS) was 308 nM. For the same compound, the GI50 (OVCAR-8 ovarian) was 374 nM, the TGI (OVCAR-8 ovarian) was 1520 nM and the GI50 (A498 renal) was 312 nM. For the same compound, the TGI (A498 renal) was 1850 nM, the GI50 (SK-MEL-28 melanoma) was 89.1 nM and the TGI (SK-MEL-28 melanoma) was 240 nM. It also gave a GI50 (MDA-MB-435 melanoma) of 163 nM, a TGI (MDA-MB-435 melanoma) of 305 nM and a GI50 (M14 melanoma) of 163 nM. It also gave a TGI (M14 melanoma) of 305 nM, a GI50 (T-47D breast) of 224 nM and a TGI (T-47D breast) of 783 nM. It also gave a GI50 (NCI/ADR-RES ovarian) of 11100 nM, a TGI (NCI/ADR-RES ovarian) of 24500 nM and a GI50 (HS 578T breast) of 143 nM. It also gave a TGI (HS 578T breast) of 294 nM, a GI50 (PC-3 prostate) of 257 nM and a TGI (PC-3 prostate) of 685 nM. It also gave a GI50 (EKVX NSCLC) of 523 nM, a TGI (EKVX NSCLC) of 2850 nM and a GI50 (HOP-62 NSCLC) of 237 nM. For the same compound, the TGI (HOP-62 NSCLC) was 765 nM, the GI50 (MOLT-4 leukemia) was 21.8 nM and the TGI (MOLT-4 leukemia) was 56.4 nM. The GI50 (SK-OV-3 ovarian) was 560 nM, the TGI (SK-OV-3 ovarian) was 11000 nM and the GI50 (OVCAR-5 ovarian) was 260 nM. For the same compound, the TGI (OVCAR-5 ovarian) was 940 nM, the GI50 (HCC-2998 colon) was 141 nM and the TGI (HCC-2998 colon) was 371 nM. It also gave a TGI (SR leukemia) of 221 nM, a GI50 (SNB-75 CNS) of 297 nM and a TGI (SNB-75 CNS) of 1260 nM. It also gave a GI50 (RPMI-8226 leukemia) of 11.2 nM, a TGI (RPMI-8226 leukemia) of 26 nM and a GI50 (DU-145 prostate) of 432 nM. It also gave a TGI (DU-145 prostate) of 1760 nM, a GI50 (NCI-H322M lung) of 2030 nM and a TGI (NCI-H322M lung) of 11800 nM. For the same compound, the GI50 (SN12C renal) was 123 nM, the TGI (SN12C renal) was 422 nM and the GI50 (OVCAR-3 ovarian) was 103 nM. It also gave a TGI (OVCAR-3 ovarian) of 228 nM, a GI50 (MCF7 breast) of 129 nM and a TGI (MCF7 breast) of 10700 nM. It also gave a GI50 (HCT-116 colon) of 160 nM, a TGI (HCT-116 colon) of 347 nM and a GI50 (MDA-MB-468 breast) of 168 nM. It also gave a TGI (MDA-MB-468 breast) of 405 nM, a GI50 (MALME-3M melanoma) of 104 nM and a TGI (MALME-3M melanoma) of 239 nM. For the same compound, the GI50 (CAKI-1 renal) was 492 nM, the TGI (CAKI-1 renal) was 19000 nM and the GI50 (LOX IMVI melanoma) was 216 nM. For the same compound, the TGI (LOX IMVI melanoma) was 507 nM, the GI50 (SNB-19 CNS) was 234 nM and the TGI (SNB-19 CNS) was 870 nM. It also gave a GI50 (UACC-62 melanoma) of 291 nM, a TGI (UACC-62 melanoma) of 1160 nM and a GI50 (IGROV1 ovarian) of 560 nM. The TGI (IGROV1 ovarian) was 2120 nM, the GI50 (RXF 393 renal) was 147 nM and the TGI (RXF 393 renal) was 297 nM. It also gave a GI50 (KM12 colon) of 346 nM, a TGI (KM12 colon) of 1280 nM and a GI50 (A549 NSCLC) of 1080 nM. It also gave a TGI (A549 NSCLC) of 16300 nM, a GI50 (TK-10 renal) of 157 nM and a TGI (TK-10 renal) of 418 nM. It also gave a GI50 (U251 glioblastoma) of 420 nM, a TGI (U251 glioblastoma) of 1940 nM and a GI50 (SF-268 CNS) of 266 nM. For the same compound, the TGI (SF-268 CNS) was 787 nM, the GI50 (HT29 colon) was 127 nM and the TGI (HT29 colon) was 274 nM. For the same compound, the GI50 (NCI-H460 NSCLC) was 426 nM, the TGI (NCI-H460 NSCLC) was 1550 nM and the GI50 (BT-549 breast) was 139 nM. The TGI (BT-549 breast) was 288 nM, the GI50 (UACC-257 melanoma) was 116 nM and the TGI (UACC-257 melanoma) was 245 nM. The GI50 (HCT-15 colon) was 556 nM, the TGI (HCT-15 colon) was 1880 nM and the GI50 (MDA-MB-231 breast) was 327 nM. It also gave a TGI (MDA-MB-231 breast) of 1280 nM, a GI50 (OVCAR-4 ovarian) of 210 nM and a TGI (OVCAR-4 ovarian) of 569 nM. The GI50 (SK-MEL-5 melanoma) was 129 nM, the TGI (SK-MEL-5 melanoma) was 285 nM and the GI50 (COLO 205 colon) was 442 nM. For the same compound, the TGI (COLO 205 colon) was over 100000 nM, the GI50 (NCI-H23 lung) was 292 nM and the TGI (NCI-H23 lung) was 1190 nM. The GI50 (HOP-92 NSCLC) was 432 nM and the TGI (HOP-92 NSCLC) was 1890 nM.
